Results published in PubChem BioAssay (NCI).
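Five concentrations, 48 hours, 96-well plates. GI50: concentration for 50% inhibition of growth. At the TGI there is no net growth.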

Assays:
Test in all cases: inhibition of tumour cell growth, NCI panel, 48 h
[1] = test system: CCRF-CEM leukemia
[2] = test system: DU-145 prostate
[3] = test system: HCC-2998 colon
[4] = test system: M14 melanoma
[5] = test system: NCI-H522 lung
[6] = test system: RPMI-8226 leukemia
[7] = test system: SF-539 CNS
[8] = test system: SW-620 colon
[9] = test system: T-47D breast
[10] = test system: TK-10 renal

| Structure (SMILES) | TGI [1] [µM] | TGI [2] [µM] | TGI [3] [µM] | TGI [4] [µM] | TGI [5] [µM] | TGI [6] [µM] | TGI [7] [µM] | TGI [8] [µM] | TGI [9] [µM] | TGI [10] [µM] | GI50 [1] [µM] | GI50 [2] [µM] | GI50 [3] [µM] | GI50 [4] [µM] | GI50 [5] [µM] | GI50 [6] [µM] | GI50 [7] [µM] | GI50 [8] [µM] | GI50 [9] [µM] | GI50 [10] [µM] |
| --- | --- | --- | --- | --- | --- | --- | --- | --- | --- | --- | --- | --- | --- | --- | --- | --- | --- | --- | --- | --- |
| COc1ccc(-c2cc(=O)c3c(O)cc(C)cc3o2)cc1OC | > 100 | > 100 | > 100 | > 100 | > 100 | > 100 | > 100 | > 100 | > 100 | > 100 |  |  |  |  |  |  |  |  |  |  |
| O=C(OCc1ccc2c(Cl)cc(Cl)c(O)c2n1)c1cc2ccccc2[nH]1 | 1.93 | 2.19 | 3.02 | 0.898 | 1.15 | 0.828 | 1.48 | 0.613 | 4.35 | 1.47 | 0.146 | 0.916 | 1.51 | 0.279 | 0.361 | 0.279 | 0.587 | 0.241 | 1.49 | 0.553 |
| CCc1nc(Cl)nc(Cl)c1Cl | 0.771 | 23.1 | 2.24 | 5.29 | 0.234 |  | 9.65 | 5.17 | 22 | 21.2 |  |  |  |  |  |  |  |  |  |  |
| CCCSC1=NC2C(N(CC)C(=O)N2CC)N1/N=C/C=C/c1ccccc1[N+](=O)[O-] (stereo not drawn) | > 100 | > 100 | 9.27 | 20.8 | 41 |  | 5.8 | > 100 | > 100 | > 100 | 2.93 | 3.51 | 2.57 | 2.83 | 2.12 |  | 2.13 | 4.25 | 4.21 | 10 |
| COc1ccc(-c2ccc(/C=N/n3c(C)nn(CN4CCN(C)CC4)c3=S)o2)c([N+](=O)[O-])c1 | 61.4 | > 100 | > 100 | > 100 | > 100 | 64.6 | > 100 | > 100 | > 100 | 74.7 | 22 | > 100 | 34.7 | 42.4 | 65 | 20.6 | 54.4 | > 100 | 45.6 | 24.3 |
| C#Cc1cccc(Nc2nc3ccc([N+](=O)[O-])cc3nc2Nc2cccc(C#C)c2)c1 | 1.03 | 1.47 | 1.27 | 0.495 | 0.609 | 0.998 | 0.738 | 1.09 | 0.889 |  | 0.209 | 0.367 | 0.341 | 0.199 | 0.209 | 0.218 | 0.247 | 0.291 | 0.259 |  |
| COc1cccc2[nH]c(-c3ccccn3)nc12 |  | > 100 | > 100 | > 100 | > 100 | > 100 | > 100 | > 100 | > 100 | > 100 |  |  |  |  |  |  |  |  |  |  |
| COc1ccc(-c2c(-c3cc(OC)c4c(c3)OCO4)noc2N)cc1 | 24.9 | 1.97 | 18.3 |  | 0.0239 | 16.9 | 11.7 | > 100 | 47.1 | 49.7 | 0.0361 | 0.041 | 0.11 |  |  | 0.0511 | 0.0339 | 0.0289 | 0.0422 | 10.4 |
| NC(=O)/C=C/NC(=O)/C=N\O | > 100 | > 100 | > 100 | > 100 | > 100 | > 100 | > 100 | > 100 | > 100 |  |  |  |  |  |  |  |  |  |  |  |
| Cc1nc(N)sc1C(=O)Nc1cc(C(=O)NCCCN(C)C)n(C)c1 | > 100 | > 100 | > 100 |  | > 100 | > 100 | > 100 | > 100 | > 100 | > 100 | > 100 | 67.3 | > 100 |  | > 100 | 60.1 | > 100 | > 100 | 35.7 | > 100 |
| CCCCCC/C=C\CCCCCCCCCC1=CC(=O)C=C(OC)C1=O |  | 38 | 27 | 16.2 | 4.58 | 7.83 | 6.74 | 17.5 | 4.86 | 18.8 |  |  |  |  |  |  |  |  |  |  |
| CSc1ccc(/C=C/c2ccnc3ccccc23)cc1 | 78.3 | 32.7 | 27.4 | 22.1 | 28.6 |  | 32.7 | 27 | 41.7 | 26.8 |  |  |  |  |  |  |  |  |  |  |
| Cn1c(=S)c2[nH]c(SCCN3CCCC3)nc2n(C)c1=O | > 100 | > 100 |  | > 100 | > 100 | > 100 | > 100 | > 100 | > 100 | > 100 |  |  |  |  |  |  |  |  |  |  |
| COc1ccc2c(c1)CCC1=CC3(CCC12C)SCCS3 (stereo not drawn) | > 10 | > 10 | > 10 | > 10 | > 10 | > 10 |  | > 10 | > 10 | > 10 |  |  |  |  |  |  |  |  |  |  |
| CC(=O)OC1CC2C(C)(C)C(=O)C=CC2(C)C2CCC3(C)C(c4ccoc4)OC(=O)C4OC43C12C (stereo not drawn) |  | 11 | 14.2 | 28.1 | 19.8 | 8.02 | 26.6 | > 100 | > 100 | > 100 |  |  |  |  |  |  |  |  |  |  |
